Reference: patent US8642656B2, “Calixarene-based peptide conformation mimetics, methods of use, and methods of making” (priority 2004, dated 2014)

Columns and labels:
endothelial cell (EC) = test: EC Proliferation Assay, [3H]thymidine incorporation (Example 36, Table 1); format: cell-based; details: read-out: EC proliferation IC50 (conc)
Procedure: Human umbilical vein derived EC(HUVEC) were harvested from normal human umbilical cords by perfusion with 0.125% trypsin/EDTA as described in Groenewegen et al., J. Exp. Med. 164, 131-143 (1986). For determination of quiescent EC phenotype isolated ECs were immediately fixed in 1% paraformaldehyde. Human microvascular ECs (MVECs) were isolated. ECs were cultured in fibronectin coated tissue culture flasks in culture medium (RPMJ-1640 with 20% human serum (HS), supplemented with 2 mM glutamine and 100 U/ml penicillin and 0.1 mg/ml streptomycin).
EC proliferation was measured using a [^3H]thymidine incorporation assay. ECs were seeded at 5000 cells/well in flatbottomed tissue culture plates and grown for 3 days, in the absence or presence of regulators, in culture medium. During the last 6 hours of the assay, the culture was pulsed with 0.5μ Ci [methyl-^3H]thymidine/well.

Fibro = test: Other cells, Fibro (Table 1); format: cell-based
MA148 = test: Other cells, MA148 (Table 1); format: cell-based, human
EC [1] = test: EC % apoptosis (Table 1); format: cell-based, human
EC [2] = test: EC % total cell death (Table 1); format: cell-based, human
SCK = test: Other cells, SCK (Table 1); format: cell-based
E. coli J96 = test: Bactericidal assay on J96; format: cell-based; details: read-out: Bacterial activity on J96 IC50 (conc)
Text: Pseudomonas aeruginosa type 1 is a clinical, smooth strain isolate stereotyped by using the scheme of Homma et al., Japan. J. Exp. Med. 46, 329-336 (1976) and maintained in the lab by monthly transfer on blood agar plates. E. coli J96, IA2, and H5 are smooth strain, uropathogenic clinical isolates kindly maintained and provided by J. R. Johnson and described in Johnson et al., J. Infect. Disease 173, 920-926 (1996) for J96 and IA2 and in Johnson et al., J. Infect. Disease 173, 746-749 (1996) for H5. J5 is an E. coli rough strain initially referenced by G. R. Siber and discussed in Warren et al., Infect. Immunity 55, 1668-1673 (1987) and is analogous to the smooth strain E. coli 0111:B4 used in the BioWhittaker LAL endotoxin detection and quantitation kit described below. Gram-positive MN8 and MNHO are two patient isolates of Staphylococcus aureus, which were kindly provided by P. M. Schlievert and described in Bohach et al., Rev. Infect. Diseases 11, 75-82 (1989) for MNHO and in Schlievert et al., J. Infect. Diseases 147, 236-242 (1983) for MN8. All cultures are maintained on nutrient agar plates.
Pyrogen-free solutions were used throughout the assay. Log phase bacteria were obtained by transferring an overnight culture or scraping crystals off-85° C glycerol stocks of overnight cultures. Bacteria were washed and resuspended in 0.9% sodium chloride with adjustment to an optical density at 650 nm which yields 3×10^8 CFU/ml. Bacteria were then diluted 1:10 in 0.08 M citrate phosphate buffer, pH 7.0 (prepared by mixing 0.08 M citric acid with 0.08 M dibasic sodium phosphate). Bacteria (0.15 ml) were incubated with the test compound in a final volume of 1.0 ml of buffer. The assay was done in 17×100 polypropylene tubes in a reciprocal water bath shaker at 37° C for 30 minutes. Following this 30 minute (min) incubation. 10-fold dilutions were made in 0.9% sodium chloride. Dilutions were done to 10^−4 and 20 μl of each dilution was streaked across an agar plate. Gram-positive organisms were plated on nutrient agar plates containing 2% agar and Gram-negative organisms were plated on MacConkey agar (2%). Plates were incubated overnight at 37° C and counted the next morning. The dilution containing 10-100 bacteria was counted and the number multiplied by 50 to adjust all counts to the number bacteria killed per milliliter. Compound concentrations were converted to logarithm base ten and graphed. Bactericidal activity was determined by dose response where LD50 values were determined by best fits of a sigmoidal curve to the dose response data.

Solubility (Table 1) = format: physicochemical; details: for Solubility (solvent, in words): footnotes: 3 mM in 100% DMSO or ethanol → 0.03 mM in H2O
Hemolysis (Table 1) = format: cell-based; details: at 10^−6 M

For `CC(C)(C)c1cc2c(O)c(c1)Cc1cc(C(C)(C)C)cc(c1OCCNC(=N)N)Cc1cc(C(C)(C)C)cc(c1O)Cc1cc(C(C)(C)C)cc(c1OCCNC(=N)N)C2`, the IC50 (endothelial cell (EC)) was 8.3 µM, the “Other cells 25 μM, Fibro” value (Fibro) was 100% 100% 100% and the “Other cells 25 μM, MA148” value (MA148) was 100% 100% 100%. The “EC % Apoptosis 25 μM” value (EC [1]) was “No effect”, the “EC % total cell death” value (EC [2]) was 65% and the “Other cells 25 μM, SCK” value (SCK) was 100% 100% 100%. For the same compound, the IC50 (E. coli J96) was > 3.8 µM, the Solubility (Solubility (Table 1); DMSO/H2O (30/70%), at >80° C., no infl. of pH 2 + 11) was “DMSO/H2O (30/70%) up to 30 mg/ml at >80° C., no infl. of pH 2 + 11” and the Hemolysis (Hemolysis (Table 1)) was 100% at 10^−6 M.
With `CC(C)(C)c1cc2c(O)c(c1)Cc1cc(C(C)(C)C)cc(c1OCCNC(=N)N)Cc1cc(C(C)(C)C)cc(c1O)Cc1cc(C(C)(C)C)cc(c1OCCN)C2.O=C(O)C(F)(F)F` the IC50 (endothelial cell (EC)) was > 25 µM, the IC50 (E. coli J96) was 2.5 µM and the “Solubility (solvent, in words)” value (Solubility (Table 1)) was “DMSO/H2O”.
For `CC(C)(C)c1cc2c(O)c(c1)Cc1cc(C(C)(C)C)cc(c1OCCCCNC(=N)N)Cc1cc(C(C)(C)C)cc(c1OCCCCNC(=N)N)Cc1cc(C(C)(C)C)cc(c1OCCCCNC(=N)N)C2`, the IC50 (endothelial cell (EC)) was > 25 µM, the IC50 (E. coli J96) was 1.3 µM and the “Solubility (solvent, in words)” value (Solubility (Table 1)) was “DMSO/H2O”.
For `CC(C)CCOc1c2cc(CCC(=O)NCCN(C)C)cc1Cc1cc(CCC(=O)NCCN(C)C)cc(c1OCCC(C)C)Cc1cc(CCC(=O)NCCN(C)C)cc(c1OCCC(C)C)Cc1cc(CCC(=O)NCCN(C)C)cc(c1OCCC(C)C)C2`, the IC50 (endothelial cell (EC)) was > 25 µM, the IC50 (E. coli J96) was 1.2 µM and the “Solubility (solvent, in words)” value (Solubility (Table 1)) was “DMSO/H2O”.
